Patent publication US10172814B2, “Substituted pyridyl-cycloalkyl-carboxylic acids, compositions containing them and medical uses thereof” (BAYER PHARMA AKTIENGESELLSCHAFT, priority 2014, dated 2019)

Target: human PTGES (Homo sapiens (Human), UniProt O14684)
Experiment: Human PTGES biochemical enzyme inhibition assay (conversion of PGH2 to PGE2, TR-FRET)
Settings: Enzymatic conversion of PGH2 to PGE2; read-out: Human PTGES IC50
Protocol: Human PTGES Biochemical Enzyme Inhibition Assay:
PTGES (Microsomal prostaglandin E synthase 1) is an enzyme that converts prostaglandin H2 (PGH2) to prostaglandin E2 (PGE2) in the presence of reduced glutathione (GSH).
Recombinant proteins (human isoforms) of PTGES containing a FLAG tag, expressed in baculovirus infected insect cells (Hi-5) and purified by affinity chromatography was used as enzyme in the assay. Substrate was prostaglandin H2 (Cayman Chemicals).
4 ul of a solution of human PTGES in assay buffer [100 mM sodium phosphate pH 7.2, 2.5 mM Glutathion reduced, 1 mM EDTA, 0.01% BSA, 0.4 mM DTT, 0.15 mM n-dodecylmaltoside] was added to the well containing test compound and incubated for 15-20 minutes to allow binding of the compound to the enzyme prior to the enzymatic reaction. The reaction was started by addition of 1 ul of an ice cold solution containing PGH2 (40 nM in assay buffer resulting in a final concentration of 8 nM PGH2 in the assay). […] The concentration of each isoform of PTGES was adapted to the activity of the respective enzyme preparation to maintain linear reaction properties within the reaction time. […] The reaction was stopped by addition of 1 ul of a solution containing 15 mM SnCl2 and 400 mM KF in water. SnCl2 converts the remaining unstable PGH2 to stable PGF2alpha. Then, 3 ul of the a first detection solution containing PGE2-D2 (Cisbio Bioassays, TR-FRET reagent, diluted according to the manufacturer's recommendation, typically 1:20 in reconstitution buffer) was added. […] The resulting mix was incubated overnight at 4° C. to allow the formation of a complex of PGE2 and the detection reagents. […] Dilution series were made prior to the assay in a 100 fold concentrated form by serial dilution. IC50 values were calculated by 4-Parameter fitting.

Sequence of human PTGES (O14684 whole entry): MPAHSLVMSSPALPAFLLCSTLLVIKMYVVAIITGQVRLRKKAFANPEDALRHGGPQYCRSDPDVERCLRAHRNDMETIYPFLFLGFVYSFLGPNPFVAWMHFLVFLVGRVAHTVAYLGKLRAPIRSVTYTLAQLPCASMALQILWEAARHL

CCOc1cncc(-c2ccc(C(C(=O)Nc3cccc(CCC(=O)O)c3C)C3CCCC3)cc2)c1 (racemic) [Example 8, (R/S) 3-[3-({Cyclopentyl[4-(5-ethoxypyridin-3-yl)phenyl]acetyl}amino)-2-methylphenyl]propanoic acid] and Cc1cncc(-c2ccc(C(C(=O)Nc3cccc(CCC(=O)O)c3C)C3CCCC3)cc2)c1 (racemic) [Example 21, (R/S) 3-[3-({Cyclopentyl[4-(5-methylpyridin-3-yl)-phenyl]acetyl}amino)-2-methylphenyl]propanoic acid] are within 1.5-fold of each other in IC50: 160 nM for the first, 161 nM for the second.

Compared with Cc1c(CC(C)C(=O)O)cccc1NC(=O)C(c1ccc(-c2cncc(OC(F)F)c2)cc1)C1CCCC1 (stereo not drawn) [Example 80, (2R/2S)-3-(3-{[(2R/2S)-2-Cyclopentyl-2-{4-[5-(difluoromethoxy)pyridin-3-yl]phenyl}acetyl]amino}-2-methylphenyl)-2-methylpropanoic acid], Cc1c(CC(C)C(=O)O)cccc1NC(=O)C(c1ccc(-c2cncc(C(F)(F)F)c2)cc1)C1CCCC1 (single isomer, unassigned; stereoisomer 2) [Example 70, 3-{3-[(Cyclopentyl{4-[5-(trifluoromethyl)pyridin-3-yl]phenyl}acetyl)amino]-2-methylphenyl}-2-methylpropanoic acid, Stereoisomer 2] is 1.7-fold lower in IC50: 88.5 nM for the first, 52.9 nM for the second. The second is the more potent here.

Compared with CCOc1cncc(-c2ccc(C(C(=O)Nc3cc(F)cc(CCC(=O)O)c3C)C3CCCC3)cc2)c1 (racemic) [Example 170, (R/S) 3-[3-({[4-(5-ethoxypyridin-3-yl)phenyl](cyclopentyl)acetyl}amino)-5-fluoro-2-methylphenyl]propanoic acid], Cc1ncc(-c2ccc(C(C(=O)Nc3cc(F)cc(CCC(=O)O)c3C)C3CCCC3)cc2)cc1Cl (racemic) [Example 169, (R/S) 3-[3-({[4-(5-chloro-6-methylpyridin-3-yl)phenyl](cyclopentyl)acetyl}amino)-5-fluoro-2-methylphenyl]propanoic acid] is 2.3-fold lower in IC50: 573 nM for the first, 254 nM for the second.

Compared with Cc1ccc(-c2ccc(C(C(=O)Nc3cccc(CC(C)C(=O)O)c3C)C3CCCC3)cc2)cn1 (stereo not drawn) [Example 79, (2R/2S)-3-[3-({(2R/2S)-2-Cyclopentyl-2-[4-(6-methylpyridin-3-yl)phenyl]acetyl}amino)-2-methylphenyl]-2-methylpropanoic acid], Cc1ncc(-c2ccc(C(C(=O)Nc3cccc(CC(C)C(=O)O)c3C)C3CCCC3)cc2)cc1Cl (single isomer, unassigned; stereoisomer 1) [Example 83, 3-[3-({[4-(5-Chloro-6-methylpyridin-3-yl)phenyl](cyclopentyl)acetyl}amino)-2-methylphenyl]-2-methylpropanoic acid, Stereoisomer 1] is 27-fold higher in IC50: 433 nM for the first, 11700 nM for the second.

First: Cc1c(CCC(=O)O)cccc1NC(=O)C(c1cc(F)c(-c2cncc(Cl)c2)cc1F)C1CCCC1 (racemic) [Example 178, (R/S) 3-[3-({[4-(5-chloropyridin-3-yl)-2,5-difluorophenyl](cyclopentyl)acetyl}amino)-2-methylphenyl]propanoic acid]
Second: Cc1cc(C(C(=O)Nc2cccc(CCC(=O)O)c2C)C2CCCC2)c(F)cc1-c1cncc(Cl)c1 (racemic) [Example 181, (R/S) 3-[3-({[4-(5-chloropyridin-3-yl)-2-fluoro-5-methylphenyl](cyclopentyl)acetyl}amino)-2-methylphenyl]propanoic acid]
The IC50 of the first is 8.6-fold lower: 269 nM for the first, 2300 nM for the second. The first is the more potent here.

Cc1cc(C(C(=O)Nc2cccc(CCC(=O)O)c2C)C2CCCC2)ccc1-c1cncc(C(F)(F)F)c1 (racemic) [Example 41, (R/S) 3-{3-[(Cyclopentyl{3-methyl-4-[5-(trifluoromethyl)pyridin-3-yl]phenyl}acetyl)amino]-2-methylphenyl}propanoic acid] and Cc1c(CCC(=O)O)cccc1NC(=O)C(c1ccc(-c2cncc(C(F)(F)F)c2)c(F)c1)C1CCCC1 (racemic) [Example 47, (R/S) 3-{3-[(Cyclopentyl{3-fluoro-4-[5-(trifluoromethyl)pyridin-3-yl]phenyl}acetyl)amino]-2-methylphenyl}propanoic acid] are within 1.5-fold of each other in IC50: 19.2 nM for the first, 15.9 nM for the second.

Going from CCOc1cncc(-c2ccc(C(C(=O)Nc3cccc(CCC(=O)O)c3C)C3CCCC3)c(F)c2)c1 (racemic) [Example 52, (R/S) 3-[3-({Cyclopentyl[4-(5-ethoxypyridin-3-yl)-2-fluorophenyl]acetyl}amino)-2-methylphenyl]propanoic acid] to Cc1c(CCC(=O)O)cccc1NC(=O)C(c1ccc(-c2cncc(C(F)(F)F)c2)cc1F)C1CCCC1 (racemic) [Example 53, (R/S) 3-{3-[(Cyclopentyl{2-fluoro-4-[5-(trifluoromethyl)pyridin-3-yl]phenyl}acetyl)amino]-2-methylphenyl}propanoic acid], the IC50 falls from 273 nM to 53.3 nM (5.1-fold).

First: Cc1c(CCC(=O)O)cccc1NC(=O)C(c1ccc(-c2ccc(F)nc2)cc1)C1CCCC1 (racemic) [Example 19, (R/S) 3-[3-({Cyclopentyl[4-(6-fluoropyridin-3-yl)-phenyl]acetyl}amino)-2-methylphenyl]propanoic acid]
Second: Cc1c(CCC(=O)O)cccc1NC(=O)C(c1ccc(-c2cccnc2F)cc1)C1CCCC1 (racemic) [Example 23, (R/S) 3-[3-({cyclopentyl[4-(2-fluoro-pyridin-3-yl)-phenyl]-acetyl}amino)-2-methyl-phenyl]propanoic acid]
The IC50 of the first is 9.5-fold lower: 552 nM for the first, 5260 nM for the second.

Compared with Cc1c(NC(=O)C(c2ccc(-c3cncc(Cl)c3)c(F)c2)C2CCCC2)cccc1C(C)CC(=O)O (single isomer, unassigned; stereoisomer 1) [Example 126, 3-[3-({[4-(5-Chloropyridin-3-yl)-3-fluorophenyl](cyclopentyl)acetyl}amino)-2-methylphenyl]butanoic acid, Stereoisomer 1], Cc1c(NC(=O)C(c2ccc(-c3cncc(C(F)(F)F)c3)c(F)c2)C2CCC2)cccc1C(C)CC(=O)O (single isomer, unassigned; stereoisomer 1) [Example 147, 3-{3-[(Cyclobutyl{3-fluoro-4-[5-(trifluoromethyl)pyridin-3-yl]phenyl}acetyl)amino]-2-methylphenyl}butanoic acid, Stereoisomer 1] is 2-fold higher in IC50: 646 nM for the first, 1310 nM for the second. The first is the more potent here.

Cc1ncc(-c2ccc(C(C(=O)Nc3cccc(C4CC4C(=O)O)c3C)C3CCCC3)cc2)cc1Cl (stereo not drawn) [Example 154, 2-[3-({2-[4-(5-chloro-6-methylpyridin-3-yl)phenyl]-2-cyclopentylacetyl}amino)-2-methylphenyl]cyclopropanecarboxylic acid] and CCc1cncc(-c2ccc(C(C(=O)Nc3cccc(C(CC(=O)O)C4CC4)c3C)C3CCCC3)cc2)c1 (mixture of isomers) [Example 114, (3R/S)-3-[3-({(2R/S)-2-cyclopentyl-2-[4-(5-ethylpyridin-3-yl)phenyl]acetyl}amino)-2-methylphenyl]-3-cyclopropylpropanoic acid] are within 1.5-fold of each other in IC50: 42.8 nM for the first, 29.5 nM for the second.

First: Cc1c(CCC(=O)O)cccc1NC(=O)C(c1ccc(-c2cncc(C(F)F)c2)cc1)C1CCCC1 (racemic) [Example 29, (R/S) 3-{3-[(Cyclopentyl{4-[5-(difluoromethyl)pyridin-3-yl]phenyl}acetyl)amino]-2-methylphenyl}propanoic acid]
Second: Cc1c(CCC(=O)O)cccc1NC(=O)C(c1ccc(-c2cncc(F)c2)cc1)C1CCC1 (racemic) [Example 60, (R/S) 3-[3-({Cyclobutyl[4-(5-fluoropyridin-3-yl)phenyl]acetyl}amino)-2-methylphenyl]propanoic acid]
The IC50 of the first is 6.1-fold lower: 78.2 nM for the first, 478 nM for the second.

First: Cc1c(CCC(=O)O)cccc1NC(=O)C(c1ccc(-c2cncc(C(F)(F)F)c2)cc1)C1CCCCC1 (racemic) [Example 66, (R/S) 3-{3-[(Cyclohexyl{4-[5-(trifluoromethyl)pyridin-3-yl]phenyl}acetyl)amino]-2-methylphenyl}propanoic acid]
Second: COc1c(CCC(=O)O)cccc1NC(=O)C(c1ccc(-c2cncc(C(F)(F)F)c2)cc1)C1CCCC1 (stereo not drawn) [Example 213, 3-{3-[(cyclopentyl{4-[5-(trifluoromethyl)pyridin-3-yl]phenyl}acetyl)amino]-2-methoxyphenyl}propanoic acid]
The IC50 of the first is 6.1-fold lower: 53.9 nM for the first, 328 nM for the second. The first is the more potent here.

First: CCOc1cncc(-c2ccc(C(C(=O)Nc3cccc(C(CC)CC(=O)O)c3C)C3CCCC3)cc2)c1 (mixture of isomers) [Example 107, (3R/S)-3-[3-({(2R/S)-2-Cyclopentyl-2-[4-(5-ethoxypyridin-3-yl)phenyl]acetyl}amino)-2-methylphenyl]pentanoic acid]
Second: CCC(CC(=O)O)c1cccc(NC(=O)[C@@H](c2ccc(-c3cncc(OC(C)C)c3)cc2)C2CCCC2)c1C (single isomer, unassigned) [Example 203]
The IC50 of the first is 6.3-fold higher: 106 nM for the first, 16.7 nM for the second. The second is the more potent here.

In the case of CCC(CC(=O)O)c1cccc(NC(=O)[C@@H](c2ccc(-c3cncc(CC(F)(F)F)c3)cc2)C2CCCC2)c1C (single isomer, unassigned) [Example 200], the IC50 is reported as 17.7 nM.
